Assay results: US8071318B2, “High throughput method and system for screening candidate compounds for activity against target ion channels” (Vertex Pharmaceuticals (San Diego) LLC, priority 2000, dated 2011)

Columns and labels:
[1] = tested on: voltage-activated chloride and potassium channels of wild-type HEK-293 cells
[2] = molecular target: IRK1 potassium inward rectifier channel (Rattus norvegicus, UniProt Q64273)
[3] = tested on: HL5 cells; format: cell-based

Sequence of IRK1 potassium inward rectifier channel (Q64273 whole entry): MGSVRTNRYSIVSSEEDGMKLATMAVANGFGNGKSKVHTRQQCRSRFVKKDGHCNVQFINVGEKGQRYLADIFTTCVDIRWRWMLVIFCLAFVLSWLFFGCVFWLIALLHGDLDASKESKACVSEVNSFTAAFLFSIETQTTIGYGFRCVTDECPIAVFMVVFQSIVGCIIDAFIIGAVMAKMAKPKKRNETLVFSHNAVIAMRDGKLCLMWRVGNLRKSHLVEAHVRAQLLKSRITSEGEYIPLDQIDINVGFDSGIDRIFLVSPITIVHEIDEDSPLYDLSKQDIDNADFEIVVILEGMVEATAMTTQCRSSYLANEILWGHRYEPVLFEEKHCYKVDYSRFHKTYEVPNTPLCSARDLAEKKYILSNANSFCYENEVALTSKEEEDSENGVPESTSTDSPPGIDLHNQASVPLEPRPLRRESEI

Q: Which “block of the negative voltage response” value [1] does the source give for `CC[N+](CC)(CC)CC` [TEA, Tetraethylammonium] here?
A: partially blocks the response

Q: Which “voltage change during stimulation with block” value [2] does the source give for `[Ba+2].[Cl-].[Cl-]` [barium chloride] here?
A: no detectable voltage change during stimulation until the field reaches 80 V/cm

Q: With `NC1=N[C@H](O)[C@H]2[C@H]3O[C@]4(O)O[C@@H]([C@@H](O)[C@@]2(N1)[C@@H]4O)[C@]3(O)CO` [TTX, tetrodotoxin] as the compound, how does the “effect on the sustained signal” value [3] read?
A: unaffected
